The results in this text go back to patent publication US20240262803A1, “COMPOUNDS, COMPOSITIONS AND METHODS OF TREATING DISORDERS” (Chungdu Anticancer Bioscience Ltd, priority 2021, published 2024).

“Also recorded” adds a separate entry of the source.

Assay [1] has as its system human lung cancer cell line NCI-H23. In words: Soft agar colony formation assay, NCI-H23. The class given is cell-based. The settings on record: NCI-H23, 3D culture, FIG. 2. The method, then: (§1) Six lung cancer cell lines (NCI-H23, NCI-H460, NCI-H596, NCI-H2170, Calu-6 and A549), two colon cancer cell lines (HCT116 and SW460), one breast cancer cell line MDA-MB-231, one gastric cancer cell line NCI-N87, one prostate cancer cell line DU145, one cervical cancer cell line Hela, and one glioblastoma cell line T98G were obtained from ATCC. The T2 HCC cell line was derived from a mouse liver cancer model initiated by a transgene of MYC (Reference). All cell lines were cultured in DMEM (Gibco, Cleveland, TN, USA) supplemented with 5% fetal bovine serum (Gibco), penicillin (100 U/mL)-streptomycin (100 μg/mL) (Gibco, Cat. No. 15140-122), 2 mM L-glutamine (Gibco, 200 mM solution, Cat. No. 25030081), and 1 mM sodium pyruvate (Gibco, 100 mM solution, Cat. No. 11360070) at 37° C. in a humidified incubator that was maintained at 5% CO2.
Measuring the ability of cells to grow in soft agar has been popularly believed as the gold standard assay for cellular transformation in vitro. In the Soft Agar Assay, cells grow from single cells to cell colonies in a semi-solid agar solution that keeps them away from the solid surface and allows growth in an anchorage-independent way.
The anchorage-independent growth of cells is one of the hallmarks of cancer cells. Normal epithelial cells are supported by basement membranes that provide survival and proliferative signals while undergo a type of apoptosis called anoikis when lose their attachment to the extracellular matrix. Cancer cells, in contrast, evade attachment-induced apoptosis, leading to uncontrolled proliferation and metastasis. The Soft Agar Colony Formation Assay allows testing of the therapeutic efficacy of compounds against anchorage-independent 3D growth of cancer cells in vitro. The assay was performed in 6-well plates with two layers of agar. For the first, 0.75% agar in DMEM medium was melted in a microwave oven and poured to form a bottom layer. […] Cell culture medium was changed once every two days until colonies were ready to photograph. […]

For assay [2], the system named is lung cancer cell line NCI-H23. Put plainly: MTT assay of cellular proliferation, NCI-H23. The class given is cell-based. The settings on record: Homo sapiens, read-out: EC50: Concentration that inhibits 50% of proliferation. An outline of the steps:
(§2)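 Proliferation inhibition was scored by MTT reduction to formazan (A570) in cells cultured in 5% FBS DMEM at 37 °C. Dose range spanned 1 nM to 10 μM, with EC50 defined as 50% inhibition.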
(In general: Tetrazolium assays rely on reduction of a dye to a coloured formazan, in cell work by metabolically active cells.)

In assay [3] the test system is lung cancer cell line NCI-H460. Put plainly: MTT assay of cellular proliferation, NCI-H460. The class given is cell-based. As to conditions: Homo sapiens, read-out: EC50: Concentration that inhibits 50% of proliferation. Here is the method: as §1
(§3) The MTT assay measures cellular metabolic activity as a proxy for cell viability and involves the conversion of the water-soluble yellow dye MTT [3-(4,5-dimethylthiazol-2-yl)-2,5-diphenyltetrazolium bromide] into an insoluble purple formazan by the action of mitochondrial reductase. Formazan is then solubilized and its concentration is determined by measuring the optical density (OD) value at a wavelength of 570 nm. The value is in proportional to the number of live cells with excellent linearity up to ˜10^6 cells per well. The MTT assay was used to determine the EC50 value, the concentration of a compound that leads to 50% inhibition of cellular proliferation. Briefly, cells were split when growing to the mid-Log phase. Cells in 100 μL of culture medium were seeded into each well of 96-well microplates and cultivated for 15˜24 hours to reach a confluence of 20˜30% and were then exposed to drugs at concentrations ranging from 1 nM to 10 μM. At the endpoint, 20 μL of a MTT stock solution in DMSO (5 mg/mL) was added to each well that contains […] of DMEM. The microplates were left in the cell culture incubator for 3˜4 h before subjected to solubilization and determination of formazan at A570 in a microplate reader (BioTek ELX808iu). […] Therefore, these compounds might hold a broad utility in the treatment of a large variety of human malignancies.

Assay [4] has as its system lung cancer cell line NCI-H596. In words: MTT assay of cellular proliferation, NCI-H596. Format: cell-based. The settings on record: Homo sapiens, read-out: EC50: Concentration that inhibits 50% of proliferation. The method, then: as §1, §3
Assay [5] has as its system lung cancer cell line NCI-H2170. In words: MTT assay of cellular proliferation, NCI-H2170. The class given is cell-based. As to conditions: Homo sapiens, read-out: EC50: Concentration that inhibits 50% of proliferation. The method, then:
as §1, §3

Assay [6] concerns lung cancer cell line Calu-6. Put plainly: MTT assay of cellular proliferation, Calu-6. Format: cell-based. The settings on record: Homo sapiens, read-out: EC50: Concentration that inhibits 50% of proliferation. The method, then:
as §1, §3

The test system of assay [7] is lung cancer cell line A549. Put plainly: MTT assay of cellular proliferation, A549. The class given is cell-based. The settings on record: Homo sapiens, read-out: EC50: Concentration that inhibits 50% of proliferation. An outline of the steps: as §2
Assay [8] relates to colon cancer cell line HCT116. Put plainly: MTT assay of cellular proliferation, HCT116. The class given is cell-based. The settings on record: Homo sapiens, HCT-116, read-out: EC50: Concentration that inhibits 50% of proliferation. The gist of the method:
as §2

Assay [9] deals with gastric cancer cell line NCI-N87. Put plainly: MTT assay of cellular proliferation, NCI-N87. The class given is cell-based. As to conditions: Homo sapiens, read-out: EC50: Concentration that inhibits 50% of proliferation. The gist of the method:
as §2

In assay [10] the test system is prostate cancer cell line DU145. Put plainly: MTT assay of cellular proliferation, DU145. The class given is cell-based. The settings on record: Homo sapiens, DU-145, read-out: EC50: Concentration that inhibits 50% of proliferation. The method, then: as §1, §3
The test system of assay [11] is cervical cancer cell line Hela. In words: MTT assay of cellular proliferation, Hela. The class given is cell-based. The settings on record: Homo sapiens, read-out: EC50: Concentration that inhibits 50% of proliferation. The gist of the method: as §2
Assay [12] concerns liver cancer cell line T2 HCC. Put plainly: MTT assay of cellular proliferation, T2 HCC. Format: cell-based. As to conditions: Mus musculus, read-out: EC50: Concentration that inhibits 50% of proliferation. The gist of the method: as §2
Assay [13] deals with lung cancer cell line NCI-H23. In words: Minimal effective concentration that elicits polyploidy, NCI-H23. The class given is cell-based. As to conditions: Homo sapiens, read-out: MECP: Minimal effective concentration that elicits polyploidy.
Assay [14] relates to lung cancer cell line NCI-H596. Put plainly: Minimal effective concentration that elicits polyploidy, NCI-H596. The class given is cell-based, human.
Assay [15] has as its system colon cancer cell line HCT116. In words: Minimal effective concentration that elicits polyploidy, HCT116. Format: cell-based. The settings on record: Homo sapiens, HCT-116, read-out: MECP: Minimal effective concentration that elicits polyploidy.
The test system of assay [16] is cervical cancer cell line Hela. In words: Minimal effective concentration that elicits polyploidy, Hela. Format: cell-based. The settings on record: Homo sapiens, read-out: MECP: Minimal effective concentration that elicits polyploidy.
Assay [17] has as its system prostate cancer cell line DU145. Put plainly: Minimal effective concentration that elicits polyploidy, DU145. Format: cell-based, human.
Assay [18] deals with liver cancer cell line T2 HCC. In words: Minimal effective concentration that elicits polyploidy, T2 HCC. Format: cell-based. As to conditions: Mus musculus, read-out: MECP: Minimal effective concentration that elicits polyploidy.

As to `COC(=O)c1cc(OC)cc(Oc2ncccc2-c2ccncc2)c1` [Compound 2, Methyl 3-([3,4′-bipyridin]-2-yloxy)-5-methoxybenzoate], in assay [1], the “anchorage-independent growth in soft agar” value (shortened to “anchorage-independent growth”) is listed as “Suppresses the Anchorage-independent Growth; also recorded: completely blocked the growth”. For the same compound, the EC50 in assay [2] lay in the range of 0.001 to 1 µM; in assay [3], 10 to 30 µM; in assay [4] it was 0.001 to 1 µM; in assay [5], 0.001 to 1 µM; in assay [6], 0.001 to 1 µM; in assay [7], 10 to 30 µM. The EC50 in [8], in assay [9], in assay [10], in [11] and in assay [12] was 0.001 to 1 µM in each case. Further, the minimal effective concentration in assay [13], in [15], in [16] and in assay [18] was 0.001 to 1 µM throughout. The “MECP: Minimal effective concentration that elicits polyploidy” value in [14] and in assay [17] was “A (A: 1 nM < conc. ≤ 1 μM)” in each case.
As to `COC(=O)c1cc(OC)cc(Oc2ncccc2-c2ccnc(N)n2)c1` [Compound 23, Methyl 3-((3-(2-aminopyrimidin-4-yl)pyridin-2-yl)oxy)-5-methoxybenzoate], the “anchorage-independent growth” value in assay [1] is on record as “Suppress the Anchorage-independent Growth; also recorded: completely blocked the growth”. In addition, the EC50 in assay [2] fell in the range of 0.001 to 1 µM; in [3], 10 to 30 µM; in [4], 0.001 to 1 µM; in [5], 0.001 to 1 µM; in [6], 0.001 to 1 µM; in [7], 10 to 30 µM. Besides, the EC50 lay within 0.001 to 1 µM in [8]; 0.001 to 1 µM in assay [9]; 0.001 to 1 µM in assay [10]; 0.001 to 1 µM in assay [11]; 1 to 10 µM in assay [12]. Further, the minimal effective concentration in assay [13], in [15], in assay [16] and in assay [18] was 0.001 to 1 µM throughout. The “MECP: Minimal effective concentration that elicits polyploidy” value in assay [14] and in [17] was “A (A: 1 nM < conc. ≤ 1 μM)” in each case.
`COC(=O)c1cc(Oc2ncccc2-c2ccncc2)cc(C(=O)OC)c1` [Compound 1, Dimethyl 5-([3,4′-bipyridin]-2-yloxy)isophthalate]: the “anchorage-independent growth” value in assay [1] is listed as “completely blocked the growth”. For the same compound, the EC50 in [2] is 0.001 to 1 µM; in assay [3], 10 to 30 µM; in assay [4], 10 to 30 µM; in assay [5] it was 0.001 to 1 µM; in assay [6] it was 0.001 to 1 µM; in [7], 10 to 30 µM. For the same compound, the EC50 in assay [8], in assay [9], in assay [10], in assay [11] and in [12] was 0.001 to 1 µM in each case. For the same compound, the minimal effective concentration in assay [13], in assay [15], in [16] and in assay [18] was 0.001 to 1 µM each time. For the same compound, the “MECP: Minimal effective concentration that elicits polyploidy” value in assay [14] and in [17] was “A (A: 1 nM < conc. ≤ 1 μM)” in each case.
On to `COC(=O)c1cc(Oc2ncccc2-c2ccnc(N)n2)cc(C(=O)OC)c1` [Compound 21, dimethyl 5-((3-(2-aminopyrimidin-4-yl)pyridin-2-yl)oxy)isophthalate], for which the EC50 in assay [2] was 0.001 to 1 µM; in assay [3], 10 to 30 µM; in assay [4], 1 to 10 µM; in assay [5] it was 0.001 to 1 µM; in [6], 0.001 to 1 µM; in assay [8] it was 0.001 to 1 µM. The EC50 in assay [9], in assay [10], in [11] and in [12] was 0.001 to 1 µM in each case. Further, the minimal effective concentration in assay [13], in assay [15], in assay [16] and in [18] was 0.001 to 1 µM in each case. Also, the “MECP: Minimal effective concentration that elicits polyploidy” value in [14] and in assay [17] was “A (A: 1 nM < conc. ≤ 1 μM)” throughout.
